Tested on: prothrombin deficient plasma
Experiment: Thrombelastography in prothrombin deficient plasma with purified prothrombin
Format: biochemical, human
Conditions: mean ± SD
Method: Plasma types, purified proteins and compounds. Prothrombin deficient plasma (George King Bio-Medical, Overland Park, Kans.) anticoagulated with sodium citrate was utilized for experimentation concerning the effects of CORM-2 on prothrombin. Purified prothrombin (Enzyme Research Laboratories, South Bend, Ind.) that was 95% pure (10.4 mg/mL, 11.1 U/mg, suspended in 20 mM Tris-HCl in 0.1M NaCl at pH 7.4) was used for experimentation. Fibrinogen deficient plasma (Affinity Biologicals, Inc., Ancaster, Ontario, Canada) anticoagulated with sodium citrate was used in experiments investigating the effects of CORM-2 on fibrinogen. […] CORM-2 and dimethyl sulfoxide (DMSO) were obtained from Sigma-Aldrich, St. Louis, Mo.
Exposure of purified prothrombin to CORM-2. In order to determine if pre-exposure of prothrombin with CORM-2 would enhance coagulation kinetics in prothrombin deficient plasma, 396 μL of pure prothrombin solution was combined with 4 μL of either DMSO or CORM-2 in DMSO for a final concentration of 0 or 100 μM CORM-2. This solution was incubated for 5 min at 37° C. prior to being added to prothrombin deficient plasma for thrombelastographic analyses. A volume of 3.1 μL of incubated solution was added to the final reaction mixture subsequently presented for a final prothrombin activity of 1 U/mL.
Prothrombin deficient plasma experiments. The final volume for experiments involving prothrombin deficient plasma was 359.1-360.7 μL. In experiments involving pre-exposure of prothrombin to 0 or 100 μM CORM-2 (n=7 per concentration), the sample consisted of 326 μL of prothrombin deficient plasma, 3.1 μL of prothrombin solution, 10 μL of tissue factor reagent (0.1% final concentration in dH2O; Instrumentation Laboratory, Lexington, Mass.), and 20 μL of 200 mM CaCl2. In experiments involving simple CORM-2 addition (positive control) to the reactants, the sample mixture consisted of 324 μL of prothrombin deficient plasma, 3.1 μL of prothrombin solution, 3.6 μL of DMSO or CORM-2 in DMSO (final CORM-2 concentration 0 or 100 μM, n=8 per concentration), 10 μL of tissue factor reagent (0.1% final concentration), and 20 μl of 200 mM CaCl2.
Thrombelastographic monitoring. Plasma sample mixtures were placed in a disposable cup in a computer-controlled THROMBELASTOGRAPH® hemostasis system (Model 5000, Haemoscope Corp., Niles, Ill.), with addition of CaCl2 as the last step to initiate clotting. Data were collected until clot strength stabilized. The following previously described variables (Examples 1-3) were determined at 37° C.: Time to maximum rate of thrombus generation (TMRTG): This is the time interval (sec) observed prior to maximum speed of clot growth. Maximum rate of thrombus generation (MRTG): This is the maximum velocity of clot growth observed (dynes/cm^2/sec). Total Thrombus Generation (TTG): This is the total area under the velocity curve during clot growth (dynes/cm^2), representing the amount of clot strength generated during clot growth.
Statistical Analyses. Data obtained from experiments involving prothrombin deficient plasma are presented as mean±SD. Typically, n=6-8 provides statistical power >0.8 in similar analyses (Examples 1 and 2). Analyses of the effects of CORM-2 on thrombelastographic variables were conducted using unpaired, two-tailed Student's t-tests. A P value of <0.05 was considered significant. Graphical representation of the thrombelastographic data derived from experiments with […] deficient plasma was generated with commercially available software (SigmaPlot 11.0, Systat Software, Inc., San Jose, Calif.). Coagulation kinetic model equations were derived with the same software. The difference between the mean values of MRTG or TTG in samples exposed to 0 or 100 μM CORM-2 were determined and expressed as percent difference secondary to CORM-2 exposure in the […] deficient plasma experiments.

[1] = 100 μM CORM-2 added to prothrombin deficient plasma mixed with prothrombin, n=8
[2] = purified prothrombin pre-exposed to 100 μM CORM-2, then added to prothrombin deficient plasma, n=7

Q: How did the “MRTG (maximum rate of thrombus generation)” value [1] turn out when [C-]#[O+].[C-]#[O+].[C-]#[O+].[C-]#[O+].[C-]#[O+].[C-]#[O+].[Cl][Ru][Cl].[Cl][Ru][Cl] [CORM-2, tricarbonyldichlororuthenium (II) dimer] was run?
A: 9.17 ± 0.36 dynes/cm^2/sec

Q: And the “TMRTG (time to maximum rate of thrombus generation)” value [1]?
A: 1.85 ± 0.04 min

Q: And the “TTG (total thrombus generation)” value [1]?
A: 152 ± 7 dynes/cm^2

Q: And the “MRTG (maximum rate of thrombus generation)” value [2]?
A: 4.65 ± 0.99 dynes/cm^2/sec

Q: And the “TMRTG (time to maximum rate of thrombus generation)” value [2]?
A: 2.15 ± 0.56 min

Q: What about the “TTG (total thrombus generation)” value [2] of the same compound?
A: 88 ± 3 dynes/cm^2
